Assay results published in article PMC8880783, “Structure and electron transfer pathways of an electron-bifurcating NiFe-hydrogenase” (Science Advances, 2022).
Each block holds one compound with its values, some of them ahead of it.

Tests used:
NiFe-HydABCSL [1] = target: T1, NiFe-HydABCSL (Acetomicrobium mobile, UniProt I4BYB5); experiment: H2-dependent bifurcation assay, Fd reduction at […] nm; format: biochemical; details: 100% H2, 40 µM A. mobile Fd, 1 mM NAD, enzyme retains about 0.35 FMN per mole
T1 construct: gene Anamo_1678; native purification from A. mobile, untagged; dimer of heteropentamers (~500 kDa by SEC; 233 kDa per pentamer); with Electron-bifurcating NiFe-hydrogenase subunit HydA; Electron-bifurcating NiFe-hydrogenase subunit HydC (NADH:ubiquinone oxidoreductase 24 kD subunit); NiFe-hydrogenase small subunit HydS; NiFe-hydrogenase large subunit HydL

NiFe-HydABCSL [2] = target: T1, NiFe-HydABCSL; experiment: cryo-EM structure of complex, […] Å; format: binding; details: 100 µM FMN with 100 µM NADH and 10 µM A. mobile Fd; site in HydB Rossmann fold, next to B1 [4Fe-4S] cluster; stacked on FMN in HydB; modelled as NAD(H)
NiFe-HydABCSL [3] = target: T1, NiFe-HydABCSL; experiment: H2-dependent bifurcation assay, simultaneous Fd and NAD reduction; format: biochemical; details: 100% H2, 40 µM A. mobile Fd, 10 µM FMN, 1 mM NAD
[4] = target: A. mobile NiFe-HydABCSL hydrogenase (heteropentamer) (A. mobile (endogenous in A. mobile cells)); experiment: cryo-EM structure; single-particle cryo-EM of the enzyme as purified, flavin-free apo state, C2 symmetry, 3.2 Å
[5] = target: A. mobile NiFe-HydABCSL hydrogenase (heteropentamer) (A. mobile (endogenous in A. mobile cells)); experiment: SEC; HiLoad Superdex 200 prepgrade XK 16/60, 25 mM tris pH 8.0, 300 mM NaCl, 5% glycerol, 2.5% trehalose, anaerobic; decamer to pentamers

% stimulation (NiFe-HydABCSL [1]; FAD concentration not given): ~ 10%
Compound: Cc1cc2nc3c(=O)[nH]c(=O)nc-3n(C[C@H](O)[C@H](O)[C@H](O)COP(=O)(O)OP(=O)(O)OC[C@H]3O[C@@H](n4cnc5c(N)ncnc54)[C@H](O)[C@@H]3O)c2cc1C [FAD]

% stimulation (NiFe-HydABCSL [1]; 10 µM FMN): ~ 35%
Compound: Cc1cc2nc3c(=O)[nH]c(=O)nc-3n(C[C@H](O)[C@H](O)[C@H](O)COP(=O)(O)O)c2cc1C [FMN]

Compound: NC(=O)C1=CN([C@@H]2O[C@H](COP(=O)(O)OP(=O)(O)OC[C@H]3O[C@@H](n4cnc5c(N)ncnc54)[C@H](O)[C@@H]3O)[C@@H](O)[C@H]2O)C=CC1 [NADH]
structure (NiFe-HydABCSL [2]): FMN and NADH had well-defined densities in HydB

Compound: NC(=O)c1ccc[n+]([C@@H]2O[C@H](COP(=O)(O)OP(=O)(O)OC[C@H]3O[C@@H](n4cnc5c(N)ncnc54)[C@H](O)[C@@H]3O)[C@@H](O)[C@H]2O)c1 [NAD]
turnover (NiFe-HydABCSL [3]): NiFe-HydABCSL reduced the Fd only if NAD was also added

stoichiometry N [4]: 2
stoichiometry N [5]: 2
Compound: A. mobile NiFe-HydABCSL hydrogenase (heteropentamer) (complex)
